pIC50: −log10 of the molar value. Where only a bound is given, the exact number is not on record here.

As usually defined, the LD50 is the dose at which mortality reaches 50%. By inhibition is commonly meant the share of the control response that was lost under treatment.

The subject of series [1] is SRS extracted from guinea pig lung. Put plainly: in vitro SRS antagonistic activity (contraction of isolated guinea pig ileum). The following applies: Cavia porcellus, concentration reducing the control contraction (one unit of SRS) of guinea pig ileum by 50%, Tyrode's solution, 37° C., mepyramine and atropine present, read-out: Anti-SRS Activity (Minimal Effective Concentration). The series is classed as cell-based. Here is the method:
The terminal ileum was taken from a male Hartley guinea pig (200 to 450 g) and the lumen was washed. The ileum was set in 5 ml of a tissue bath containing Tyrode's solution: NaCl 136 mM, KCl 2.7 mM, NaHCO3 11.9 mM, MgCl2 1.05 mM, CaCl2 1.8 mM, NaH2 PO4 0.4 mM, and glucose 5.6 mM. The temperature in the bath was kept at 37° C. and the bath was aerated by 95% oxygen/5% carbon dioxide. The buffer solution also contained 10^-7 g/ml mepyramine and 5×10^-8 g/ml atropine in order to prevent the contraction caused by histamine and acetylcholine. Isometric measurement was done by an […] transducer (TD-112S, NIPPON KODEN, Japan) and change of tension in gram was recorded in a recticorder (RTG-4124, NIPPON KODEN, Japan). A tension of 0.5 g was passively loaded on the ileum. Thus, the contraction response of the ileum to SRS extracted from guinea pig lung was observed. The tonic contraction corresponding to one unit of SRS which corresponded to 5 ng of histamine was used as control. Varying concentrations of each compound to be tested were added to the tissue bath. The concentration of each compound to be tested which reduced the contraction of the control by 50%, IC50, was shown as a minimal effective concentration in M in Table 3.

Series [2] is described as follows: Acute toxicity, oral, mice. The following applies: mouse, in vivo, suspension in 1% tragacanth, ddy male mice, observed for 7 days. From the text:
A suspension of the compound according to the present invention in 1% tragacanth solution was orally administered to a group of 4 to 5 ddy male mice of 6 week old.

The target of series [3] is Phospholipase A2 from Porcine Pancreas (Sus scrofa, UniProt P00592). Kind of series: in vitro phospholipase inhibiting activity (DPybPC fluorescence). The following applies: pH 8, read-out: Phospholipase A2 Inhibition (%).
Phospholipase A2 from Porcine Pancreas, sequence (P00592 23-146): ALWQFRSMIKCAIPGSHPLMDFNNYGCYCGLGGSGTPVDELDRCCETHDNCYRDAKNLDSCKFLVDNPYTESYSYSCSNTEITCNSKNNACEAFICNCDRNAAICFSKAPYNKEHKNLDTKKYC
Experimental: In 2.4 ml of 5 mM tris(hydroxymethyl)aminomethane hydrochloride buffer (pH 8.0) containing 0.1M sodium chloride and 5 mM calcium chloride, 0.3 ml of a phospholipase A2 solution from Naja mocambique or Porcine pancreas (Sigma) in a final concentration of 0.014 units per 0.01 μg per ml was preincubated with 0.03 ml of an inhibitor at 25° C. for 15 minutes. A synthetic substrate DPybPC, 1,2-bis(4-(l-pyreno)butyryl)-syn-glycero-3-phosphorylcholine (0.3 ml, final concentration: 2 μM) was added and incubation was continued for 30 minutes. The reaction was terminated by addition of hydrochloric acid (1N, 0.5 ml), the fluorescence intensity was measured (Ex. 332 nm; Em. 382 nm) to calculate the activity of the phospholipase A2. The enzymes, synthetic substrate and inhibitor used were dissolved or diluted in the buffer.

For `O=C(O)c1cccc(C=Cc2nc3ccccc3s2)c1` [Compound 1, 3-(2-(2-benzthiazolyl))ethenylbenzoic acid], the pIC50 in series [1] is 6.70.

Consider `CCCc1csc(C=Cc2cccc(C(=O)O)c2)n1` [Compound 2], for which the pIC50 in series [1] is 7.70.

As to `O=C(O)c1cccc(C=Cc2ccc3ccccc3n2)c1` [Compound 3], the pIC50 in series [1] is 7.30.

Turning to `CC(C)c1csc(C=Cc2cccc(C(=O)O)c2)n1` [Compound 5, 3-(2-(4-isopropyl-2-thiazolyl))ethenylbenzoic acid], in series [1], the pIC50 was 7.30.

In the case of `O=C(O)CCCNC(=O)c1cccc(C=Cc2nc3ccccc3s2)c1` [Compound 6, 4-(N-(3-(2-(2-benzthiazolyl))ethenyl)benzoyl)aminobutyric acid], the pIC50 in series [1] is 5.00.

Take `CC(C)(CNC(=O)c1cccc(C=Cc2nc3ccccc3s2)c1)C(=O)O` [Compound 7]: the pIC50 in series [1] is 7.30. For the same compound, the LD50 at 168 h in series [2] was above 700 mg/kg.

The compound `CCCc1csc(C=Cc2cccc(C(=O)NCC(CC)(CC)C(=O)O)c2)n1` [Compound 19, 3-(N-(3-(2-(4-propyl-2-thiazolyl))ethenyl)benzoyl)amino-2,2-diethylpropionic acid] showed a 50% lethal dose (LD50) at 168 h in series [2] above 1000 mg/kg.

For `CC(C)c1csc(C=Cc2cccc(C(=O)NCC3(C(=O)O)CCCCC3)c2)n1` [Compound 22, 3-(N-(3-(2-(4-isopropyl-2-thiazolyl))ethenyl)benzoyl)amino-2-spiro-l'-cyclohexanepropionic acid], the inhibition at 10 µM in series [3] was determined as 74%.

These data come from US4925861A, “Carboxystyrene derivatives and drugs containing them as effective ingredients” (Mitsubishi Kasei Corporation, priority 1987, dated 1990).
